# Results as given in patent US6875865B1, “Selected derivatives of K-252a” (Cephalon, Inc., priority 1996, dated 2005).
# Assays:
# [1] = test system: basal forebrain cultures; assay: Basal Forebrain ChAT Activity Assay; type: cell-based, rat; conditions: day six
# Procedure: Compounds of the invention were assessed for their ability to promote survival and increase in ChAT activity in basal forebrain cultures. ChAT activity in these cultures is a biochemical marker for the cholinergic neurons (less than 5% of the cells in culture), which represent the major cholinergic input to the hippocampal formation, olfactory nucleus, interpeduncular nucleus, cortex, amygdala, and parts of the thalamus. […] The basal forebrain was dissected from embryonic day 17 or 18 rat embryos and the cells were […] with Dispase™ (neutral protease, Collaborative Research). Neurons were plated at 5×10^4 cells/well (1.5×10^5 cells/cm^2) in wells of 96-well plates previously coated with […] and laminin. Cells were cultured in serum-free N2 medium containing 0.05% bovine serum albumin (BSA) (Bottenetein et al., supra) at 37° in a humidified atmosphere of 5% CO2/95% air. ChAT activity was measured in vitro at day six, using a modification of the Formum procedure (supra) according to McManaman et al. (supra) and Glicksman et al. (J. Neurochem. 61:210-221, 1993).
# (§1) Compounds which increased ChAT activity at least 120% of the control activity are considered active.
# [2] = test system: dissociated spinal cord cultures; assay: Spinal Cord ChAT Activity Assay; type: cell-based, rat
# Procedure: The effect of selected ring substituted K-252a derivatives on CHAT activity was assayed in dissociated spinal cord cultures prepared from fetal rats using the procedure described in U.S. Pat. No. 5,461,146, Columns 26 and 27, Examples 6 and 7. ChAT is the enzyme that catalyzes the synthesis of the neurotransmitter acetylcholine, and it is a specific biochemical marker for cholinergic neurons. In the spinal cord, the large majority of cholinergic neurons are motor neurons. Assay of this enzyme may thus be used as an indication of the effects of a factor, or actors, on the survival of cholinergic neurons and/or regulation of this enzyme.
# as §1
# [3] = concentration not given, tested between 10 nM and 500 nM, at least 120% of control = active
smiles,measurement,setting,value
COC(=O)C1(O)CC2OC1(C)n1c3ccc(CCCN4CCCCC4)cc3c3c4c(c5c6cc(CCCN7CCCCC7)ccc6n2c5c31)C(=O)NC4 (stereo not drawn) [Compound 82],ChAT Activity maximum efficacy % of Control (conc),[1]; maximum efficacy at 250 nM,150 (250 nM) % of Control
COC(=O)C=Cc1ccc2c(c1)c1c3c(c4c5cc(C=CC(=O)OC)ccc5n5c4c1n2C1CC(O)(C(=O)OC)C5(C)O1)CNC3=O (stereo not drawn) [Compound 1],ChAT Activity maximum efficacy % of Control (conc),[2]; maximum efficacy at 30 nM,153 (30 nM) % of Control
COC(=O)C1(O)CC2OC1(C)n1c3ccc(CCCOC=O)cc3c3c4c(c5c6cc(CCCOC=O)ccc6n2c5c31)C(=O)NC4 (stereo not drawn) [Compound 73b],ChAT Activity maximum efficacy % of Control (conc),[1]; maximum efficacy at 250 nM,171 (250 nM) % of Control
COC(=O)C1(O)CC2OC1(C)n1c3ccc(CCNCc4ccc(OC)cc4)cc3c3c4c(c5c6cc(CCNCc7ccc(OC)cc7)ccc6n2c5c31)C(=O)NC4 (stereo not drawn) [Compound 80],ChAT Activity maximum efficacy % of Control (conc),[1]; [3],<120 % of Control
COCOCc1ccc2c(c1)c1c3c(c4c5ccccc5n5c4c1n2C1CC(O)(C(=O)OC)C5(C)O1)CNC3=O (stereo not drawn) [Compound 154],ChAT Activity maximum efficacy % of Control (conc),[2]; maximum efficacy at 300 nM,177 (300 nM) % of Control
COC(=O)C1(O)CC2OC1(C)n1c3ccccc3c3c4c(c5c6cc(C#CCN(C)C)ccc6n2c5c31)C(=O)NC4 (stereo not drawn) [Compound 61],ChAT Activity maximum efficacy % of Control (conc),[1]; maximum efficacy at 50 nM,166 (50 nM) % of Control
CCOC(=O)CCSCCc1ccc2c(c1)c1c3c(c4c5cc(CCSCCC(=O)OCC)ccc5n5c4c1n2C1CC(O)(C(=O)OC)C5(C)O1)CNC3=O (stereo not drawn) [Compound 90],ChAT Activity maximum efficacy % of Control (conc),[1]; [3],<120 % of Control
COC(=O)C1(O)CC2OC1(C)n1c3ccc(C=Cc4ccncc4)cc3c3c4c(c5c6cc(C=Cc7ccncc7)ccc6n2c5c31)C(=O)NC4 (stereo not drawn) [Compound 145],ChAT Activity maximum efficacy % of Control (conc),[2]; maximum efficacy at 300 nM,129 (300 nM) % of Control
COC(=O)C1(O)CC2OC1(C)n1c3ccc(C=Cc4ccccn4)cc3c3c4c(c5c6cc(CSc7nc8ccccc8[nH]7)ccc6n2c5c31)C(=O)NC4 (stereo not drawn) [Compound 120],ChAT Activity maximum efficacy % of Control (conc),[2]; maximum efficacy at 300 nM,257 (300 nM) % of Control
COC(=O)C1(O)CC2OC1(C)n1c3ccc(CCN4CCCCC4)cc3c3c4c(c5c6cc(CCN7CCCCC7)ccc6n2c5c31)C(=O)NC4 (stereo not drawn) [Compound 75],ChAT Activity maximum efficacy % of Control (conc),[1]; [3],<120 % of Control
COC(=O)C1(O)CC2OC1(C)n1c3ccc(CCN(C)CCO)cc3c3c4c(c5c6cc(CCN(C)CCO)ccc6n2c5c31)C(=O)NC4 (stereo not drawn) [Compound 78],ChAT Activity maximum efficacy % of Control (conc),[1]; [3],<120 % of Control
COC(=O)C1(O)CC2OC1(C)n1c3ccc(CCCSc4nc5ccccc5s4)cc3c3c4c(c5c6cc(CCCSc7nc8ccccc8s7)ccc6n2c5c31)C(=O)NC4 (stereo not drawn) [Compound 96],ChAT Activity maximum efficacy % of Control (conc),[1]; [3],<120 % of Control
COC(=O)C1(O)CC2OC1(C)n1c3ccccc3c3c4c(c5c6cc(C=Cc7ncc[nH]7)ccc6n2c5c31)C(=O)NC4 (stereo not drawn) [Compound 148],ChAT Activity maximum efficacy % of Control (conc),[2]; maximum efficacy at 300 nM,206 (300 nM) % of Control
COC(=O)C1(O)CC2OC1(C)n1c3ccc(C=CCN(C)C)cc3c3c4c(c5c6cc(C=CCN(C)C)ccc6n2c5c31)C(=O)NC4 (stereo not drawn) [Compound 64],ChAT Activity maximum efficacy % of Control (conc),[1]; maximum efficacy at 250 nM,165 (250 nM) % of Control
CCN(CC)CCCc1ccc2c(c1)c1c3c(c4c5cc(CCCN(CC)CC)ccc5n5c4c1n2C1CC(O)(C(=O)OC)C5(C)O1)CNC3=O (stereo not drawn) [Compound 84],ChAT Activity maximum efficacy % of Control (conc),[1]; [3],<120 % of Control
CNCCc1ccc2c(c1)c1c3c(c4c5cc(CCNC)ccc5n5c4c1n2C1CC(O)(C(=O)OC)C5(C)O1)CNC3=O (stereo not drawn) [Compound 79],ChAT Activity maximum efficacy % of Control (conc),[1]; [3],<120 % of Control
COC(=O)CCc1ccc2c(c1)c1c3c(c4c5cc(CCC(=O)OC)ccc5n5c4c1n2C1CC(O)(C(=O)OC)C5(C)O1)CNC3=O (stereo not drawn) [Compound 139],ChAT Activity maximum efficacy % of Control (conc),"[2]; concentration not given, at least 120% of control = active",<120 % of Control
COC(=O)C1(O)CC2OC1(C)n1c3ccc(C(=O)CSc4ncccn4)cc3c3c4c(c5c6cc(C(=O)CSc7ncccn7)ccc6n2c5c31)C(=O)NC4 (stereo not drawn) [Compound 49],ChAT Activity maximum efficacy % of Control (conc),[1]; [3],<120 % of Control
CCN(CC)CCc1ccc2c(c1)c1c3c(c4c5cc(CCN(CC)CC)ccc5n5c4c1n2C1CC(O)(C(=O)OC)C5(C)O1)CNC3=O (stereo not drawn) [Compound 77],ChAT Activity maximum efficacy % of Control (conc),[1]; maximum efficacy at 250 nM,132 (250 nM) % of Control
COCc1ccc2c(c1)c1c3c(c4c5cc(C=Cc6ccccn6)ccc5n5c4c1n2C1(C)OC5CC1(O)C(=O)OC)C(=O)NC3 (stereo not drawn) [Compound 102],ChAT Activity maximum efficacy % of Control (conc),[1]; maximum efficacy at 50 nM,176 (50 nM) % of Control
CCSCc1ccc2c(c1)c1c3c(c4c5cc(C=Cc6ccccn6)ccc5n5c4c1n2C1CC(O)(C(=O)OC)C5(C)O1)CNC3=O (stereo not drawn) [Compound 118],ChAT Activity maximum efficacy % of Control (conc),[2]; maximum efficacy at 30 nM,249 (30 nM) % of Control
